{"source": "patent US4332805A", "about": "“Decahydroquinolinol derivatives and methods of treating cardiac arrythmias or inducing local anaesthesia with them” (priority 1979, dated 1982)", "key": {"[1]": {"assay": "LAWSON test: protection against chloroform-induced ventricular fibrillation", "assay_type": "in vivo, mice", "settings": "for ED50: Mus musculus, po", "protocol": "The arrhythmia was induced, in this test, by inhalation of chloroform until breathing stopped.\nFor each dose of the substance to be studied, batches of 10 female mice, each of about 20 g, were used. These mice had been fasting for 18 hours before the test. A batch of 10 animals was used as control group.\nA dose of the compound to be studied was first administered by intragastric route except to the controls which only received the solvent used with the compound in question. Thirty minutes later, the animals were placed under a dome-shaped receptacle containing a high concentration of chloroform obtained by means of a strongly impregnated pad.\nThe animals were removed when totally asphyxiated (about 2 minutes later), the thorax was rapidly opened and the ventricular rhythm observed. The dose of the compound under study which protected 50% of the animals against ventricular fibrillation was then determined.\nThis protective dose is expressed as AD50 in mg/kg in the following Table. […]\nAnother comparative test was performed under the same conditions with\nseveral compounds included within the scope of U.S. Pat. No. 3,882,129 at\nthe single dose of 100 mg/kg by intragastric route.\nThe following results were obtained which are expressed in percentage of protection obtained against the arrhythmic effect at the studied dose: […]"}, "[2]": {"assay": "ventricular fibrillation provoked by chloroform or by calcium chloride", "settings": "in vivo"}, "[3]": {"assay": "arrhythmia-inducing and lethal dose in continuous venous perfusion", "assay_type": "in vivo", "settings": "anaesthetized dog"}, "[4]": {"assay": "hypotensive activity / myocardial contractility", "settings": "in vivo"}, "[5]": {"assay": "motor activity (spontaneous motility) / sedation", "assay_type": "in vivo, mouse"}, "[6]": {"assay": "protection against toxic effects of epinephrine (antiadrenergic properties)", "assay_type": "in vivo", "settings": "mice, 50 mg/kg intragastric, 30 minutes before 3 mg/kg i.v. epinephrine", "protocol": "Tests carried out with Compound A have shown that a dose of 50 mg/kg administered by intragastric route to mice 30 minutes before the intravenous injection of 3 mg/kg of epinephrine gave no protection against the toxic effects of this catecholamine."}, "[7]": {"assay": "local anaesthesia, CHANCE and LOBSTEIN technique (eyelid closure after touching cornea)", "assay_type": "in vivo, guinea-pig", "settings": "for local anaesthesia, % of animals / local anaesthesia, % of animals protected: guinea-pig eye; for local anaesthesia, % of animals: 0.1% solution, 5 minutes after administration; for local anaesthesia, % of animals protected: 0.5% solution", "protocol": "In this way, the percentage of locally anaesthetized animals were determined with respect to both the dose of compound given and the length of time elapsing after administration."}, "[8]": {"assay": "acute toxicity", "settings": "mouse, in vivo, mice"}, "[9]": {"assay": "acute toxicity", "settings": "rat, in vivo", "from_the_text": "Acute toxicity tests were undertaken with Compound A on mice and rats."}, "[10]": {"assay": "convulsant dose", "assay_type": "in vivo", "settings": "mice per os; dog i.v."}, "[11]": {"assay": "LAWSON test: protection against chloroform-induced ventricular fibrillation", "assay_type": "in vivo", "settings": "mice, 75 mg/kg intragastric"}, "[12]": {"settings": "0.5 h, female mice, intragastric, 30 minutes before chloroform, salts (hydrochloride), read-out: AD50 (dose protecting 50% of the animals against ventricular fibrillation)"}, "[13]": {"settings": "30 minutes after administration"}}, "note": "Counter-ions that a name gives are not always drawn. Like-named read-outs stand apart in the source and are kept apart here."}
{"smiles": "NC(=O)O[C@@H]1CCN(CCCOc2ccc(F)cc2)[C@H]2CCCC[C@H]12", "note": "(relative stereo) [Compound A, 4-Carbamoyloxy-1-[3-(4-fluoro-phenoxy)-propyl]-trans-decahydroquinoline (axial form)]", "values": [{"measurement": "ED50", "setting": "[1]; [12]", "result": 45, "unit": "mg/kg"}, {"measurement": "ED50", "setting": "[1]; mice, per os, read-out: Antiarrhythmic dose (LAWSON AD50 test)", "result": 45, "unit": "mg/kg"}, {"measurement": "protection against ventricular fibrillation provoked by chloroform or by calcium chloride", "setting": "[2]", "result": "provides protection against ventricular fibrillation provoked by chloroform or by calcium chloride"}, {"measurement": "lethal dose", "setting": "[3]", "result": "84.1 ± 7.1", "unit": "mg/kg"}, {"measurement": "TD50", "setting": "[3]; in vivo, iv", "result": "80.6 ± 6", "unit": "mg/kg"}, {"measurement": "hypotensive activity and depression of myocardial contractility", "setting": "[4]", "result": "neither a hypotensive agent since its mechanism of action does not result from antiadrenergic properties nor is it a depressant of myocardial contractility"}, {"measurement": "sedative / antiadrenergic at antiarrhythmic doses", "setting": "[5]; mice, 50 mg/kg intragastric", "result": "neither sedative nor antiadrenergic at antiarrhythmic doses"}, {"measurement": "depression of spontaneous motility", "setting": "[5]; mice, 50 mg/kg intragastric, 30 minutes later", "result": "no depression of spontaneous motility"}, {"measurement": "motor activity", "setting": "[5]; mouse", "result": "does not modify motor activity"}, {"measurement": "protection against the toxic effects of epinephrine", "setting": "[6]", "result": "no protection"}, {"measurement": "local anaesthetic activity compared with lidocaine", "setting": "[7]; guinea-pig", "result": "more active than lidocaine as a local anaesthetizing agent and exerts its effects over a longer period of time"}, {"measurement": "local anaesthesia, % of animals", "setting": "[7]", "result": 58, "unit": "%"}, {"measurement": "local anaesthesia, % of animals protected", "setting": "[7]; [13]", "result": 35, "unit": "%"}, {"measurement": "LD50", "setting": "[8]; po, intragastric", "result": 750, "unit": "mg/kg"}, {"measurement": "LD50", "setting": "[8]; intravenous", "result": 42.5, "unit": "mg/kg"}, {"measurement": "LD50", "setting": "[9]; iv", "result": 47, "unit": "mg/kg"}, {"measurement": "LD50", "setting": "[9]; po", "result": "> 2000", "unit": "mg/kg"}, {"measurement": "safety margin between effective antiarrhythmic dose and convulsant dose", "setting": "[10]", "result": "good safety margin"}, {"measurement": "% of protection", "setting": "[11]; [13]", "result": 80, "unit": "%"}, {"measurement": "% of protection", "setting": "[11]; 60 minutes after administration", "result": 65, "unit": "%"}, {"measurement": "% of protection", "setting": "[11]; 120 minutes after administration", "result": 60, "unit": "%"}, {"measurement": "% of protection", "setting": "[11]; 180 minutes after administration", "result": 45, "unit": "%"}, {"measurement": "% of protection", "setting": "[11]; 240 minutes after administration", "result": 30, "unit": "%"}]}
{"smiles": "NC(=O)O[C@@H]1CCN(CCCOc2ccccc2)[C@H]2CCCC[C@H]12", "note": "(relative stereo) [hydrogen, 3, O, phenyl, axial, 4-Carbamoyloxy-1-(3-phenoxy-propyl)-trans-decahydroquinoline hydrochloride (axial form)]", "values": [{"measurement": "ED50", "setting": "[1]; [12]", "result": "> 100", "unit": "mg/kg"}]}
{"smiles": "NC(=O)O[C@@H]1CCN(CCCSc2ccc(F)cc2)[C@H]2CCCC[C@H]12", "note": "(relative stereo) [hydrogen, 3, S, 4-fluoro-phenyl, axial, 4-Carbamoyloxy-1-[3-(4-fluoro-phenylthio)-propyl]-trans-decahydroquinoline hydrochloride (axial form)]", "values": [{"measurement": "ED50", "setting": "[1]; [12]", "result": "> 100", "unit": "mg/kg"}]}
{"smiles": "CNC(=O)O[C@@H]1CCN(CCCOc2ccc(F)cc2)[C@H]2CCCC[C@H]12", "note": "(relative stereo) [methyl, 3, O, 4-fluoro-phenyl, axial, 1-[3-(4-Fluoro-phenoxy)-propyl]-4-(N-methylcarbamoyloxy)-trans-decahydroquinoline hydrochloride (axial form)]", "values": [{"measurement": "AD50 (dose protecting 50% of the animals against ventricular fibrillation)", "setting": "[1]; female mice, intragastric, 30 minutes before chloroform, salts (hydrochloride)", "result": 55, "unit": "mg/kg"}]}
{"smiles": "CCCCNC(=O)O[C@@H]1CCN(CCCOc2ccc(F)cc2)[C@H]2CCCC[C@H]12", "note": "(relative stereo) [n-butyl, 3, O, 4-fluoro-phenyl, axial, 4-(N-n-butylcarbamoyloxy)-1-[3-(4-fluoro-phenoxy)-propyl]-trans-decahydroquinoline hydrochloride (axial form)]", "values": [{"measurement": "ED50", "setting": "[1]; [12]", "result": 50, "unit": "mg/kg"}]}
{"smiles": "CCCNC(=O)O[C@@H]1CCN(CCCOc2ccc(F)cc2)[C@H]2CCCC[C@H]12", "note": "(relative stereo) [n-propyl, 3, O, 4-fluoro-phenyl, axial, 1-[3-(4-Fluoro-phenoxy)-propyl]-4-(N-n-propyl-carbamoyloxy)-trans-decahydroquinoline hydrochloride (axial form)]", "values": [{"measurement": "ED50", "setting": "[1]; [12]", "result": 80, "unit": "mg/kg"}]}
{"smiles": "O=C(Nc1ccccc1)O[C@@H]1CCN(CCCOc2ccc(F)cc2)[C@H]2CCCC[C@H]12", "note": "(relative stereo) [phenyl, 3, O, 4-fluoro-phenyl, axial, 1-[3-(4-Fluoro-phenoxy)-propyl]-4-(N-phenylcarbamoyloxy)-trans-decahydroquinoline hydrochloride (axial form)]", "values": [{"measurement": "ED50", "setting": "[1]; [12]", "result": "> 100", "unit": "mg/kg"}]}
{"smiles": "CCN(CC)CC(=O)Nc1c(C)cccc1C", "note": "[lidocaine, reference compound]", "values": [{"measurement": "ED50", "setting": "[1]; 0.5 h, read-out: AD50 (dose protecting 50% of the animals against ventricular fibrillation)", "result": 35, "unit": "mg/kg"}, {"measurement": "local anaesthesia, % of animals", "setting": "[7]", "result": 26, "unit": "%"}, {"measurement": "local anaesthesia, % of animals protected", "setting": "[7]; 15 minutes after administration", "result": 35, "unit": "%"}]}
